# Laboratory results published in ChEMBL document CHEMBL1201862, “PubChem BioAssay data set” (2004).
# Calls of active or inactive are those of the source.
# Experiments:
# [1] = molecular target: T1, High affinity choline transporter 1 (Homo sapiens, UniProt Q9GZV3); test: human choline transporter blockers, potency – cell-based, 5-point CRC, membrane potential dye, dose response (AID 504840); type: functional
# T1 sequence (Q9GZV3 whole entry): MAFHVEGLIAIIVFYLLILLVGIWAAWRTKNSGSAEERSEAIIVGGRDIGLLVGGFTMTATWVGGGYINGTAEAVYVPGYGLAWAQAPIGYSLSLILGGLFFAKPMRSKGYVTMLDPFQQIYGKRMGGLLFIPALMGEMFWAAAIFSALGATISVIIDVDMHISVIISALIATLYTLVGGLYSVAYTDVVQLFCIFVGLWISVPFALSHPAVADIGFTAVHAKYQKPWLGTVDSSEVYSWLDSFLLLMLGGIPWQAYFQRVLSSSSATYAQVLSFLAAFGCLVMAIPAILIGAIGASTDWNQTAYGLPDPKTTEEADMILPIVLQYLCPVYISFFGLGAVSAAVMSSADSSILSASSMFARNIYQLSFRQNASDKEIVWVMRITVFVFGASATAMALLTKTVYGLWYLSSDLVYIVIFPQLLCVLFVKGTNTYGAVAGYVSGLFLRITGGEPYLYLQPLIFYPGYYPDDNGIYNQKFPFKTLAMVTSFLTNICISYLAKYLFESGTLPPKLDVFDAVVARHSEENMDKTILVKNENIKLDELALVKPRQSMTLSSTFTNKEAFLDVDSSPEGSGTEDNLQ
# [2] = molecular target: Glyceraldehyde-3-phosphate dehydrogenase (Homo sapiens, UniProt P04406)
# [3] = HEK-293T cell viability reduction – luminescence, B-cell screen hits, cytotoxicity control for BCR NF-kB inhibitor project, dose response (AID 489021); type: functional, cell-based;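 further: HEK-293T cells carrying an NF-kB luciferase reporter; cells exposed to compound for about 14 hours before viability readout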
# Aminopeptidase N = molecular target: T2, Aminopeptidase N (Plasmodium falciparum FcB1/Columbia, UniProt O96935); test: malaria alanyl aminopeptidase activity blockers – biochemical, fluorogenic H-Leu-NHMec substrate, 1536-well (AID 1445); set-up: species or system Plasmodium falciparum 3D7, 3D7
# T2 sequence (O96935 whole entry): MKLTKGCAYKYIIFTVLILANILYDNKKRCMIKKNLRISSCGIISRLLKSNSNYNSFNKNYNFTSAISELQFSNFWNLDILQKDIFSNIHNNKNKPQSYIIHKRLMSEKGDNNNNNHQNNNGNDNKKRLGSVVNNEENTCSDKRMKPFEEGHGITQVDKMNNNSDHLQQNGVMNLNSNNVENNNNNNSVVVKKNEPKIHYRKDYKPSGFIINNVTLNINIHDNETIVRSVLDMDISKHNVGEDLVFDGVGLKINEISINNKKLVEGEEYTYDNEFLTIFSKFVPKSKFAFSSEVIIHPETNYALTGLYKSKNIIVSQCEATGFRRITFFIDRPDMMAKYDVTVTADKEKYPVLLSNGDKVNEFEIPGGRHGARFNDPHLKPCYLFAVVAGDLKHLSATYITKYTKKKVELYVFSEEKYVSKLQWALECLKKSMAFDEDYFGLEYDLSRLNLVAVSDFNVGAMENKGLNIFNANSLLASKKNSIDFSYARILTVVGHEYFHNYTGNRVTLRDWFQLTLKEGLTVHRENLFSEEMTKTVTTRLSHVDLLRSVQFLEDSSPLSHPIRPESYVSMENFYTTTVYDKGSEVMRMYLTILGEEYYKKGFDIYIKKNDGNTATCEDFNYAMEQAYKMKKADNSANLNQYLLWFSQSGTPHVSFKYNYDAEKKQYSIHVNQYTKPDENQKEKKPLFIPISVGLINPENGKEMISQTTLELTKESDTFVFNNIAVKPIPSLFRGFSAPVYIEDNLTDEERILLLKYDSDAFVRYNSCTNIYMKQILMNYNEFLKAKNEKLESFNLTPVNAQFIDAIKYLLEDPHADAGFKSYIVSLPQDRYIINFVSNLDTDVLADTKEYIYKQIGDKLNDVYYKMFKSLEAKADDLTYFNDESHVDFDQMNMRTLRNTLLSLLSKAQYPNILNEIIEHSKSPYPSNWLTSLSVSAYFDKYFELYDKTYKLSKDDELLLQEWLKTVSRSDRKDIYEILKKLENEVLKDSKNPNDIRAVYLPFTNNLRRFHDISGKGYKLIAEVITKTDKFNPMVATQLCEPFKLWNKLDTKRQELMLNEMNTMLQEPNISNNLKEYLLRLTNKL
# [4] = microbe, parasite or virus in culture; type: functional; conditions: Mycobacterium tuberculosis
# [5] = viability of HCT116 lacking mutant beta-catenin – cell-based, human colon tumor, dose response (AID 1045); type: functional;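 further: HCT116 colon tumor cells with beta catenin knocked out; cells exposed to compound for 60 hours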
# [6] = non-specific 3'UTR reporter inhibition in Clone20-Shn3RL – cell-based, Renilla luciferase, cherry-picked, counter-screen for Shn3 inhibitor project, dose response (AID 624133); type: functional
# [7] = loss of viability in HepG2 cells – cell-based, CellTiter-Glo, cherry-picked, cytotoxicity control for Shn3 inhibitor project, dose response (AID 624134); type: functional
# [8] = reduction of Shn3 3'UTR-driven luciferase in osteoblasts – cell-based, Clone20 osteoblasts, firefly luciferase, cherry-picked, dose response (AID 624132); type: functional;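 further: firefly luciferase luminescence from reporter carrying the Shn3 3'UTR in osteoblasts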
# Paired box protein Pax-8 = Paired box protein Pax-8 (Homo sapiens, UniProt Q06710); test: PAX8 transcriptional activity inhibition in RMG-I – RMG-I cells, luciferase, cherry-pick, dose response (AID 687027); type: functional, cell-based;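 further: luciferase reporter driven by Pax8 target thyroperoxidase promoter measured by SteadyGlo luminescence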
# [9] = viability of PTEN-deleted HCT116 cells – cell-based, HCT116 PTEN knockout, dose response (AID 1047); type: functional;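 further: HCT116 colon tumor cells with PTEN knocked out; cells exposed to compound for 60 hours before readout; potency for loss of cell viability measured by luminescence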
# Cytochrome P450 3A4 [10] = molecular target: T3, Cytochrome P450 3A4 (Homo sapiens, UniProt P08684); conditions: Potency
# [11] = molecular target: T4, Ubiquitin-conjugating enzyme E2 N (Homo sapiens, UniProt P61088); type: functional;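 further: Dose-response confirmation in a TR-FRET assay detecting UBC13-driven polyubiquitin chain formation, inhibition measured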
# T4 sequence (P61088 whole entry): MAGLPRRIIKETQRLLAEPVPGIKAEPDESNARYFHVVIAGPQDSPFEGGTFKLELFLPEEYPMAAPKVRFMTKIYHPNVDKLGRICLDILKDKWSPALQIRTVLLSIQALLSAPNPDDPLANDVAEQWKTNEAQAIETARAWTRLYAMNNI
# cells = type: functional
# [12] = THP-1 cell cytotoxicity, dose response, cytotoxicity control for non-replicating M. tuberculosis project (AID 489025); type: functional
# Large T antigen = Large T antigen (Simian virus 40, UniProt P03070); type: functional, Betapolyomavirus macacae;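 further: Confirmatory-stage PubChem screen for compounds that inhibit SV40 T antigen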
# [13] = molecular target: T5, RNA-binding protein pos-1 (Caenorhabditis elegans, UniProt G5EF15); test: disruptors of C. elegans POS-1 RNA interaction – biochemical, fluorescence polarization, dose response (AID 1964);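 further: purified POS-1 fused to maltose binding protein made in E. coli; potency of compounds blocking POS-1 binding to fluorescent RNA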
# T5 sequence (G5EF15 whole entry): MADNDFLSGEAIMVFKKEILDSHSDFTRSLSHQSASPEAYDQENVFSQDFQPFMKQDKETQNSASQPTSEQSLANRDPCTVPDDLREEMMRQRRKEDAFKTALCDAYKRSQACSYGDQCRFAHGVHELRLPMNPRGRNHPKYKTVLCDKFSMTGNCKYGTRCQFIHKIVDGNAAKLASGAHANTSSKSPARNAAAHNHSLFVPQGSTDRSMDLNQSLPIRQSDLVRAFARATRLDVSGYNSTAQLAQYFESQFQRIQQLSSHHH
# Cytochrome P450 3A4 [14] = molecular target: T3, Cytochrome P450 3A4
# [15] = molecular target: T6, Zinc finger protein mex-5 (Caenorhabditis elegans, UniProt Q9XUB2); test: potency of MEX-5 RNA-binding blockers – biochemical, C. elegans, fluorescence polarization, dose response (AID 1960)
# T6 sequence (Q9XUB2 whole entry): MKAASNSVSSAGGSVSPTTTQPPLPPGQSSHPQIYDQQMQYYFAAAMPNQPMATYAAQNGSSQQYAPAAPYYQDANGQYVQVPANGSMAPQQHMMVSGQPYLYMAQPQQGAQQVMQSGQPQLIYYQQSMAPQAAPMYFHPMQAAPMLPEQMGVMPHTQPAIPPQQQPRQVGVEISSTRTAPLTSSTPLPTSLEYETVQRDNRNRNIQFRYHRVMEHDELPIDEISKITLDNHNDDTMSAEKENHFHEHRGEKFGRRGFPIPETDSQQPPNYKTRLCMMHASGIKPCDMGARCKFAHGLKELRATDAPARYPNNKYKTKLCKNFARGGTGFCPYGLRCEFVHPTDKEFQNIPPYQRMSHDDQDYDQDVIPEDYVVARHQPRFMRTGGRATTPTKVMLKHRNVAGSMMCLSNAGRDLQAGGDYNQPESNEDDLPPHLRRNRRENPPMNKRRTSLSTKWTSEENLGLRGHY
# Genome polyprotein = Genome polyprotein (dengue virus type 2, UniProt P29990); test: flavivirus cap methylation enzyme inhibition – biochemical, confirmation dose response, primary screen (AID 588689); type: functional
# [16] = molecular target: Glucose-6-phosphate 1-dehydrogenase (Homo sapiens, UniProt P11413); test: inhibition of Homo sapiens G6PD, dose series – biochemical, fluorescence, selectivity assay for P. falciparum G6PD inhibitor project, dose response (AID 504792); type: functional
# Streptococcus = test: GAS UMAA2166 growth inhibition – luminescence, BacTiterGlo, counter-screen for streptokinase expression inhibitor project, dose response (AID 1915); type: functional, organism-based;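 further: potency for reduction of bacterial viability or growth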
# Streptokinase A = molecular target: T7, Streptokinase A (Streptococcus pyogenes serotype M1, UniProt P10520); test: viability-normalized secreted streptokinase activity reduction – plasminogen activation absorbance, OD405, dose response (AID 1914); type: functional, Streptococcus pyogenes M1 GAS;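 further: secreted streptokinase activity via plasminogen activation per viability signal from cell pellet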
# T7 sequence (P10520 whole entry): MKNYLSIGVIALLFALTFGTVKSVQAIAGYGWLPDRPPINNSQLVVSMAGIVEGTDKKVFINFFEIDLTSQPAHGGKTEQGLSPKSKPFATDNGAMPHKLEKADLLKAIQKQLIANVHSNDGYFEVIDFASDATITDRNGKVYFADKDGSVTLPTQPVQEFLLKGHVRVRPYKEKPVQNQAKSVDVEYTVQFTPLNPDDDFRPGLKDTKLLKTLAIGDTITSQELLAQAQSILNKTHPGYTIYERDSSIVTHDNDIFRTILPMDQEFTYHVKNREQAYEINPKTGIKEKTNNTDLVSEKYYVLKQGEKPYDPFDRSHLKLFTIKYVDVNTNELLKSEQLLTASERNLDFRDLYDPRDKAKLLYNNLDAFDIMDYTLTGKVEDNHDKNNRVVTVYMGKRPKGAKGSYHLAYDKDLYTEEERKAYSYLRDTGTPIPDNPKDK
# [17] = tested on: Streptococcus sp. 'group A'; test: Streptococcus pyogenes SK(-)GAS viability under kanamycin – luminescence, BacTiterGlo, confirmation, counter-screen for streptokinase expression inhibitor project, dose response (AID 1900); type: functional, organism-based
# Chain of Genome polyprotein (P29990 2492-3391 limits assumed): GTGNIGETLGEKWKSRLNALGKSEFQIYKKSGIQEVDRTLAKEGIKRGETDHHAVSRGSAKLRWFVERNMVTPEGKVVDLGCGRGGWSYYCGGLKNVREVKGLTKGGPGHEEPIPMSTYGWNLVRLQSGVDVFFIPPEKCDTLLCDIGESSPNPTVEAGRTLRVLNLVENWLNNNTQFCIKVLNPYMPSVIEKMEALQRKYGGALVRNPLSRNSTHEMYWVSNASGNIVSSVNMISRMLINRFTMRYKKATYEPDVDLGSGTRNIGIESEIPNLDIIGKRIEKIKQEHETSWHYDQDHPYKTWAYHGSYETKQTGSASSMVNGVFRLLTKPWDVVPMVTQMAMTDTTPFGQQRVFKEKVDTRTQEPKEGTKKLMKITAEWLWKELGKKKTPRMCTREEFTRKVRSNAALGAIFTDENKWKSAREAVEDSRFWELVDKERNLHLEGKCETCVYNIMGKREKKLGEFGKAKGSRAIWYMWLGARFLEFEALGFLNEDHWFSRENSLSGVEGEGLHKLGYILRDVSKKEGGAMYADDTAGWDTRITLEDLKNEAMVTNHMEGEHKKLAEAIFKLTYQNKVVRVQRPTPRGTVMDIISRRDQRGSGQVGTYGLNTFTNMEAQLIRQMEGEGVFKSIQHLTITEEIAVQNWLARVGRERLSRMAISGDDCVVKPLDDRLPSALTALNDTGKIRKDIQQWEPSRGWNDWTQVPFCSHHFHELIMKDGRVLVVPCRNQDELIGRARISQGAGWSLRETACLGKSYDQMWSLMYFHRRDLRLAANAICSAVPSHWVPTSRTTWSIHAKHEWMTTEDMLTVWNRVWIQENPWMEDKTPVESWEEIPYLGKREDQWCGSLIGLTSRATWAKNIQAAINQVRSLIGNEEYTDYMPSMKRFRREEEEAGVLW
# T3 sequence (P08684 whole entry): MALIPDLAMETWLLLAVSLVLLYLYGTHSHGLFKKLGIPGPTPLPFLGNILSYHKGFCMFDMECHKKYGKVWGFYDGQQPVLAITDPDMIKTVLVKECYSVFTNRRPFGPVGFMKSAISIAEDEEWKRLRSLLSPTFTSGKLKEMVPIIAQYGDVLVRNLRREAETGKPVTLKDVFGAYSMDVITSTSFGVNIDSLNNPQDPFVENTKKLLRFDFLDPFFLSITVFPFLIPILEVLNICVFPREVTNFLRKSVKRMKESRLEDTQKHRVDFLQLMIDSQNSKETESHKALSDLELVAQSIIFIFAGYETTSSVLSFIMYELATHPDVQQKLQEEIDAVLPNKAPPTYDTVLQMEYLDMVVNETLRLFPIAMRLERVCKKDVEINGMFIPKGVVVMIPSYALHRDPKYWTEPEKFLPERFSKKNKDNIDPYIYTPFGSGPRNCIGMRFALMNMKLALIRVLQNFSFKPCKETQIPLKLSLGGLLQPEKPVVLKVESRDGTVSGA
# Chain of Glucose-6-phosphate 1-dehydrogenase (P11413 whole entry): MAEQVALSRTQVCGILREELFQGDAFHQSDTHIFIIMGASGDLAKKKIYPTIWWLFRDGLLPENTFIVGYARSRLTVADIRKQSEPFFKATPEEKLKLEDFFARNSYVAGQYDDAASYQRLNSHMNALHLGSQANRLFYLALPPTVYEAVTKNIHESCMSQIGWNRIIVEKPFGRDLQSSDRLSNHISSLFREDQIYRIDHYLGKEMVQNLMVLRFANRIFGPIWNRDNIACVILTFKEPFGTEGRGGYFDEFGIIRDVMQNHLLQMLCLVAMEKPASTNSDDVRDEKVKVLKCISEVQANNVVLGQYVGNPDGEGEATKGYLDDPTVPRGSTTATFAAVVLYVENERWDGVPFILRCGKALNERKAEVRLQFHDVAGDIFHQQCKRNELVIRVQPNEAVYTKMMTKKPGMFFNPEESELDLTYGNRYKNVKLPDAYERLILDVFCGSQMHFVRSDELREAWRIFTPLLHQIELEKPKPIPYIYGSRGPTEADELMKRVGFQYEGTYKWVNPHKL
# Chain of Paired box protein Pax-8 (Q06710 whole entry): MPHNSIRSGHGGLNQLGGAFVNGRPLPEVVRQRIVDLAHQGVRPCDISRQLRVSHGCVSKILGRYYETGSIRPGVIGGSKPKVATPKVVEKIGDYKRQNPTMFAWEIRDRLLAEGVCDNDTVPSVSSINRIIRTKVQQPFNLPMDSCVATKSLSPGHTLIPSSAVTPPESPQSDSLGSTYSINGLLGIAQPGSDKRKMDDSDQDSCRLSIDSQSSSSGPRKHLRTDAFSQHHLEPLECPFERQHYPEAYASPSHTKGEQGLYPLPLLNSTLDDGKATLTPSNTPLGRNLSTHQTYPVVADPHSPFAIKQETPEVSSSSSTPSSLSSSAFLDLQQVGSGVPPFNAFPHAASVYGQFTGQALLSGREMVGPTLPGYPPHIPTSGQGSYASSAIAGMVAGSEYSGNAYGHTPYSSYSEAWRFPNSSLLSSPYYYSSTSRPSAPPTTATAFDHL
# Chain of Large T antigen (P03070 whole entry, the tested form may be a part): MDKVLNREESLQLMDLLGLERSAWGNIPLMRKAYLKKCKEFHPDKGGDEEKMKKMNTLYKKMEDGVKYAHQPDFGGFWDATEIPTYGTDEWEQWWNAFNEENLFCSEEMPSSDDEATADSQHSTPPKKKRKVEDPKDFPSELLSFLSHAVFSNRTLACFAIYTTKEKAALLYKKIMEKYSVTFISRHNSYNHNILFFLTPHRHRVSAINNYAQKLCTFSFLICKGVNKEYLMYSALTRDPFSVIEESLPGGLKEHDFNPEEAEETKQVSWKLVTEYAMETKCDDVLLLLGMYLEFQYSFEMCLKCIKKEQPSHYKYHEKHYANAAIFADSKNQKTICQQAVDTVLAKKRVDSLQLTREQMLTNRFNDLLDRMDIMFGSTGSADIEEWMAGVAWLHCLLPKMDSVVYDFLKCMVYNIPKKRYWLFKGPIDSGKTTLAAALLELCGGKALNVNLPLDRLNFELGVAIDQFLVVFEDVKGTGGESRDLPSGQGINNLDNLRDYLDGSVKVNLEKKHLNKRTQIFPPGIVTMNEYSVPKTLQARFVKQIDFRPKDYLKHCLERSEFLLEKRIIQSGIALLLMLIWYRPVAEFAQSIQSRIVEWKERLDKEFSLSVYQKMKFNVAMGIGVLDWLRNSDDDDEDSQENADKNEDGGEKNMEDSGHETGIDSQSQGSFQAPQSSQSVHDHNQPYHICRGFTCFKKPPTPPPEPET
# Chain of Glyceraldehyde-3-phosphate dehydrogenase (P04406 whole entry): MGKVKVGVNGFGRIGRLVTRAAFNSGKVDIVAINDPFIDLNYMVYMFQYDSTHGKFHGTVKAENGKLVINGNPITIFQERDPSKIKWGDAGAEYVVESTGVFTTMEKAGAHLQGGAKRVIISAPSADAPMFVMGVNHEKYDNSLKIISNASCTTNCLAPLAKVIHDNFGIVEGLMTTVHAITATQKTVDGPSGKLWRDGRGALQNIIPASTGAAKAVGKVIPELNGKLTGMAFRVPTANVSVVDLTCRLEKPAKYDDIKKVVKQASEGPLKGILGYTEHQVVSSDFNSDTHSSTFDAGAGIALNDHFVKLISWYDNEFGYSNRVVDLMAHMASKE
compound,measurement,setting,value
Cc1cnc(C)c(N2CCN(Cc3nc(-c4cccc(F)c4F)oc3C)CC2)n1,IC50,[1],15.1 µM (active)
O=C(O)Cc1ccc(/C(=N\O)c2cccs2)s1,IC50,[2],> 100 µM (not active)
O=C(N/N=C/c1cccnc1)c1cc(-c2ccccc2OCc2ccccc2)[nH]n1,IC50,[3],53.1 µM (inactive)
same,IC50,Aminopeptidase N,31.2 µM (active)
CCn1c(SCc2nc(-c3ccc(OC)c(OC)c3)no2)nnc1-c1cccs1,IC50,[1],11.2 µM (active)
C=C1C(=O)[C@@]23[C@H](O)C[C@@H]4C(C)(C)CC[C@H](O)[C@@]4(C)[C@@H]2CC[C@@H]1[C@H]3O [KAMEBANIN],CC50,[4],5.73 µM (active)
same,EC50,[5],1.02 µM (active)
same,AC50,[6],4.85 µM (active)
same,AC50,[7],26.3 µM (active)
same,AC50,[8],1.29 µM (active)
same,AC50,Paired box protein Pax-8,1.16 µM (active)
same,EC50,[9],1.17 µM (active)
Cc1ncc(CN2CC=C(c3ccccc3)CC2)c(N)n1,AC50,Cytochrome P450 3A4 [10],25.1 µM (inconclusive)
Cc1ccccc1C1C2=C(O)c3ccccc3C2=Nc2nn(-c3ccccc3)c(O)c21 (stereo not given),IC50,Aminopeptidase N,40.4 µM (active)
C=CC(=O)OCCCCCCOC(=O)C=C,AC50,Cytochrome P450 3A4 [10],25.1 µM (inconclusive)
Cc1cc(C)cc(N(C(=O)c2snc(C(N)=O)c2N)C(C(=O)NCC2CCCO2)c2ccc(C)o2)c1 (stereo not given),IC50,[11],> 20 µM (inactive)
O=C1/C(=C/C=C/c2ccccc2)Oc2c1ccc(O)c2CN1CCN(CCO)CC1,IC50,cells,23.3 µM (active)
same,CC50,[12],> 40 µM (active)
O=c1cc(-c2ccc(O)c(O)c2)oc2cc(O)cc(O)c12 [LUTEOLIN],IC50,Large T antigen,11.9 µM (active)
same,EC50,[13],60.4 µM (active)
same,AC50,Cytochrome P450 3A4 [14],5.01 µM (inconclusive)
same,IC50,Aminopeptidase N,22.9 µM (active)
same,EC50,[15],31 µM (active)
O=C(O)c1cccc(N2C(=O)C=CC2=O)c1,IC50,Genome polyprotein,76.9 µM (active)
same,IC50,[16],> 80 µM (inactive)
COc1ccc(/C=C2/SC(=S)N(CC(=O)O)C2=O)cc1OCc1ccc(Cl)cc1,IC50,Genome polyprotein,> 100 µM (active)
COC(=O)COc1ccc(-c2ccc(F)cc2)cc1C=O,IC50,cells,3.51 µM (active)
CC(/C=C(\O)c1ccc(Br)cc1)=N/NC(=O)c1ccccc1,CC50,[12],22.2 µM (active)
Cc1nc(C)c(/C(O)=C/c2nc3ccccc3oc2=O)s1,IC50,cells,3.09 µM (active)
same,CC50,[12],> 40 µM (active)
O=C1NN(c2ccccc2)C(=O)/C1=C\c1ccccc1OCC(=O)N1CCOCC1,IC50,Genome polyprotein,> 100 µM (active)
CC(C)OCCCNc1nc2c(-c3ccccc3)nnn2c2ccccc12,IC50,[11],> 20 µM (inactive)
CCCc1nc2sc3c(c2c(=O)n1NC(=O)c1ccco1)CC(C)(C)OC3,IC50,Aminopeptidase N,36.1 µM (active)
CN1CCc2cc3c(cc2C(=O)Cc2ccc4c(c2C1)OCO4)OCO3,AC50,Cytochrome P450 3A4 [10],25.1 µM (inconclusive)
O=C(COc1ccccc1/C=C\c1nc(O)c([N+](=O)[O-])c(O)n1)Nc1ccccc1,IC50,Aminopeptidase N,49 µM (active)
CC(NC(=O)c1ccc(F)cc1)c1ccc2c(c1)CCCC2 (stereo not given),IC50,[1],20.9 µM (active)
NS(=O)(=O)c1ccc(N2N=C(c3ccccc3)CC2c2ccc(F)cc2)cc1 (stereo not given),EC50,Streptococcus,18.7 µM (active)
same,EC50,Streptokinase A,55.2 µM (active)
same,EC50,[17],6.96 µM (active)
same,IC50,Aminopeptidase N,62 µM (active)
